This note sets out measurements from the NIST ThermoML archive (doi:10.1016/j.jct.2015.12.032).

The conditions of data set [1]: for mass density: 298.15 K, 101.33 kPa, Liquid, Pycnometric method.
A short description of data set [2]: Molar enthalpy of transition or fusion. The conditions noted are these: Crystal; DSC.

Numbers after ± are expanded uncertainties.

For `CNC(=O)NC` [1,3-dimethylurea], the Normal melting temperature in data set [1] (Crystal, DTA) amounted to 103.20 ± 1.1 °C. In addition, in data set [2], the “Molar enthalpy of transition or fusion” value is 12.8 ± 0.39 kJ/mol.

As for `CC(C)=O` [acetone], the mass density in data set [1] is given as 785.1 ± 1.4 kg/m3.

On to `CC#N` [acetonitrile], for which the mass density in data set [1] came to 777 ± 1.4 kg/m3.

For `CCC(C)O` (stereo not drawn) [butan-2-ol], the mass density in data set [1] amounted to 802.4 ± 1.5 kg/m3.

For the molecule `CCCCOC(C)=O` [butyl ethanoate], the mass density in data set [1] is listed as 875.8 ± 1.6 kg/m3.

In the case of `CCOC(C)=O` [ethyl acetate], the mass density in data set [1] turned out to be 894.4 ± 1.6 kg/m3.

Take `CC(C)O` [propan-2-ol]: the mass density in data set [1] is given as 781.2 ± 1.4 kg/m3.
